What was measured:
[1] = test system: H1N1 influenza virus plus cigarette smoke; assay: Lung inflammation exacerbation model combining H1N1 influenza infection and cigarette smoke exposure (Cs-H1N1); format: in vivo, female C57BL/6 mice; details: survival assay, once a day for 7 days from day of infection
Source text: Viral infections are among the principal causes of COPD exacerbations (Mackay, A. J. & Hurst, J. R. Immunol Allergy Clin North Am 33, 95-115; 2013). For that reason, the inventors combined influenza infection and cigarette smoke exposure (Cs) in mice in order to model COPD exacerbation. The inventors essentially exposed female C57BL/6 mice to Cs for 12 days and infect them with 1000 pfu of H1N1 influenza virus at day 7 after starting daily Cs exposure (Cs-H1N1).

[2] = test system: S. pneumoniae secondary infection after IAV; format: in vivo, C57BL/6J mice
[3] = test system: Influenza A/WSN/33 H1N1 (IAV); assay: Single IAV infection in mice, treatment with CXCR1/CXCR2 antagonist; format: in vivo, C57BL/6J mice; details: 10^4 PFU IAV
[4] = test system: Streptococcus pneumoniae (ATCC 6303 serotype 3); assay: Single pneumococcal infection (pneumonia) in mice; format: in vivo, C57BL/6J mice; details: S. pneumoniae i.n.
[5] = in vivo; cited from earlier work
neutrophil influx = details: this dose and schedule (10 mg/kg oral gavage); cited from earlier work
[6] = 10 mg/kg twice a day for 5 days, day 5, BAL
[7] = 10 mg/kg twice a day for 5 days, day 5, BAL fluid ELISA
[8] = 10 mg/kg at 6, 12, 24, 36 h, 48 h after infection, BALF

Structure (SMILES): C[C@@H](C(=O)NS(C)(=O)=O)c1ccc(OS(=O)(=O)C(F)(F)F)cc1 [DF2156A]
- Mortality rate ([1]; Cs-H1N1 mice, LD50 of influenza virus): slightly reduced
- Mice mortality, delay (survival curve vs Cs-H1N1 group) [1]: significantly delayed

Structure (SMILES): C[C@@H](C(N)=O)c1ccc(OS(=O)(=O)C(F)(F)F)cc1 [DF2162, R(−)-2-[(4′-trifluoromethanesulfonyloxy)phenyl]propionamide]
- Levels of IL-10 in BAL fluid ([2]; mouse, in vivo): decreased
- Mortality after secondary infection ([2]; mouse, in vivo, 10 mg/kg): delayed mortality
- Weight loss ([2]; mouse, in vivo, 10 mg/kg): reduced the weight loss
- Histopathological lung damage (overall score of lung injury) ([2]; treated days 3-6 of IAV, […]): decreased such histopathological lung damage
- Levels of CXCL-1 in BAL fluid ([2]; treated days 3-6 of IAV, […]): prevented the increase
- Levels of IL-6 in BAL fluid ([2]; treated days 3-6 of IAV, […]): prevented the increase
- Levels of IL-12 in BAL fluid ([2]; treated days 3-6 of IAV, […]): prevented the increase
- Levels of TNF-α in BAL fluid ([2]; treated days 3-6 of IAV, […]): prevented the increase
- Number of bacteria in the blood ([2]; treated days 3-6 of IAV, […]): reduction in number of bacteria
- Recruitment of neutrophils into the lungs (MPO assay) ([2]; treated days 3-6 of IAV, […]): decreased recruitment of neutrophils
- Recruitment of neutrophils into the airways ([2]; treated days 3-6 of IAV, […], BAL): decreased recruitment of neutrophils
- Levels of protein in BALF (protein leakage) ([2]; treated days 3-6 of IAV, […], Bradford assay): decreased the levels of protein in BALF
- Weight loss (morbidity) ([3]; 10 mg/kg oral gavage twice a day, day 0 to 5, vs vehicle): reduction of weight loss
- Histological analysis of lungs: bronchiolar and vascular inflammation ([3]; 10 mg/kg twice a day for 5 days, H&E slides): reduced bronchiolar and vascular inflammation
- Levels of MPO in the lungs ([3]; 10 mg/kg twice a day for 5 days, day 5): did not reduce
- Neutrophils in the airways [3, 6]: decreased
- Number of leukocytes recruited into the airways [3, 6]: decreased
- Levels of CXCL1 in the airways [3, 7]: decreased
- Levels of IL-6 in the airways [3, 7]: did not reduce
- Levels of TNF-α in the airways [3, 7]: decreased
- Viral loads in the lungs ([3]; 10 mg/kg twice a day for 5 days, day 5, plaque assay, vs vehicle): reduced
- Lung injury (histopathological score) ([3]; 10 mg/kg twice a day for 5 days, day 5, score max 18 points): reduced the lung injury
- Lung injury (overall pathological score) ([4]; 10 mg/kg at 6, 12, 24, 36 h, 48 h, score max 18 points): reduced the lung injury
- Neutrophils in the lungs ([4]; 10 mg/kg at 6, 12, 24, 36 h, 48 h after infection): reduction in neutrophils
- Neutrophils recruited into the airways [4, 8]: decreased
- Number of leukocytes recruited into the airways [4, 8]: decreased number of leukocytes
- Lethality ([4]; 10 mg/kg twice a day for 2 days, followed 10 days): protected mice from lethality
- Half-life [5]: long half-life
- Neutrophil influx in other models (neutrophil influx): significant inhibition of neutrophil influx

Structure (SMILES): C[N+]1(C)[C@@H]2C[C@@H](OC(=O)C(O)(c3cccs3)c3cccs3)C[C@H]1[C@@H]1O[C@@H]12 [Tiotropium, reference compound]
- Mice mortality, delay (survival curve vs Cs-H1N1 group) [1]: no significant differences
